This test deals with human kidney 293E cells stably transfected with Gαiq—5. Briefly: cells. To be noted: 293E cells with Gαiq—5 coding region only. How it is done: The growth medium in the 6-well plate was replaced with antibiotic-free medium at 3 ml per well. DNA complexes were added at 320 μl per well and plates were returned to the incubator. […] 25 μl of this suspension was added to 30 ml of selective medium in a 15 cm tissue culture plate. Cells were maintained in selective medium for approximately two weeks. Five single clones were isolated and grown in 24-well, then 6-well, then T-75 tissue culture plates.
Thirty hours later cells were loaded with 100 μl loading dye. […] A stock solution of Probenecid (Sigma P8761) was prepared by dissolving 70 mg in 500 μl 1 M NaOH and then adding 500 μl of FIPR assay buffer. This was added to the loading solution at a final concentration of 700 μg/ml. After adding the loading dye, cells were returned to the incubator for one hour.
After one hour loading, dye was removed from the wells by gentle aspiration and replaced with 120 μl of FLIPR assay buffer.
Data were analyzed and plotted using XLfit (IDBS).

Read-outs that look alike come from different tables or passages of the source.

The term EC50 denotes the concentration needed to bring the measured effect to its halfway point.

On to `O=C(O)c1cccnc1` [nicotinic acid, Nicotinic acid], for which the EC50 (Homo sapiens, read-out: calculated EC50, FIG. 5) is 833 nM and the EC50 (read-out: calculated EC50, FIG. 5) is 823 nM.

These data come from patent US7371822B2, “Human G-protein coupled receptor variant of HM74, HGPRBMY74” (Bristol-Myers Squibb Company, priority 2003, dated 2008).
